Patent US5605921A, “Triazole derivatives and salts thereof, and antifungal agent containing the same” (Toyama Chemical Co., Ltd., priority 1991, dated 1997)
≈ marks a conversion by molar mass, not a printed value.

Assays:
Candida albicans ON28 [1] = assay: Therapeutic effect, oral, mice infected with Candida albicans ON28 (3), Table 2c; type: in vivo, ICR strain male mice infected with Candida albicans ON28; conditions: average survival days of Ketoconazole taken as 100; Candida albicans 5.7×10^6 cells/mouse i.v.; 0.1 mg/mouse oral, 2 hours after infection; 10 days observation; 10 mice
Procedure: (3) The therapeutic effects of the present compounds, when they were administered orally, were examined using mice infected with Candida albicans ON28.
Candida albicans ON28 was injected in a proportion of 5.7×10^6 cells/mouse to a group of 10 ICR strain male mice (weight: 19-21 g) intravenously at the tails, whereby the mice were infected with the fungi. […] The relative therapeutic index of the test compound was determined from the average survival days.
The results are shown in Table 2c, in which the relative therapeutic index of each test compound is a value calculated by taking the average survival days Ketoconazole as 100.

[2] = test system: Aspergillus fumigatus IFO8868; assay: Therapeutic effect, oral, mice infected with Aspergillus fumigatus IFO8868 (4), Table 2d; type: in vivo; conditions: average survival days of Ketoconazole taken as 100; Aspergillus fumigatus 5.8×10^6 cells/mouse i.v.; 0.8 mg/mouse oral, 2 hours after infection and once daily for six consecutive days; 10 days observation; 10 mice
Procedure: (4) The therapeutic effects of the present compounds, when they were administered orally, were examined using mice infected with Aspergillus fumigatus IFO8868.
Aspergillus fumigatus IFO8868 was injected in a proportion of 5.8×10^6 cells/mouse to a group of 10 ICR strain male mice (weight: 19-21 g) intravenously at the tails, whereby the mice were infected with the fungi. […] The relative therapeutic index of the test compound was determined from the average survival days.
The results are shown in Table 2d, in which the relative therapeutic index of each test compound is a value calculated by taking the average survival days of Ketoconazole as 100.

Candida albicans ON28 [3] = assay: Minimum inhibitory concentration (MIC) against Candida albicans ON28; type: cell-based; conditions: ON28, 72 h, TC broth medium, 10^4 spores/ml, 37° C., 3 days
Procedure: (§1) MIC was determined in accordance with the method of M. S. Marriott [25th Interscience Conference on Antimicrobial Agents and Chemotherapy, p. 243 (1985)].
(§2) Candida albicans ON28 was cultured in a sabouraud dextrose agar medium containing 10 g of neopeptone, 20 g of glucose and 15 g of agar per liter, at 30° C. for 1-2 days. The yeast cells were suspended in sterile distilled water. Separately, Aspergillus fumigatus IFO8868 was cultured in a potato dextrose agar medium (manufactured by Nissui Pharmaceutical Co., Ltd.) at 30° C. until the conidia were formed abundantly. The formed conidia were suspended in a sterile physiological saline containing 0.1% of Tween 80. Each of the Candida albicans suspension and the Aspergillus fumigatus suspension was inoculated into a TC broth medium (containing 1.17 g of an yeast carbon base, 0.25 g of ammonium sulfate, 2.0 ml of a 50-fold concentrate of L-glutamic acid-containing MEM amino acid, 20 ml of a 0.5M phosphate buffer of pH 7.5 and 1.33 ml of 7.5% sodium hydrogencarbonate per 100 ml) containing a test compound, so that the final fungal amount became 10^4 spores/ml. Then, culture was conducted at 37° C. for 3 days. Thereafter, the growth of fungi was examined. The minimum concentration of test compound at which the growth of fungi had been inhibited, was taken as MIC (μg/ml).

[4] = test system: Aspergillus fumigatus IFO8868; assay: Minimum inhibitory concentration (MIC) against Aspergillus fumigatus IFO8868; type: cell-based; conditions: IFO8868, 72 h, TC broth medium, 10^4 spores/ml, 37° C., 3 days
Procedure: as §1, §2

| SMILES | MIC (Candida albicans ON28 [3]) [µg/mL] | MIC [4] [µg/mL] | Relative therapeutic index (Candida albicans ON28 [1]) | Relative therapeutic index [2] |
| --- | --- | --- | --- | --- |
| CNC(=O)C(F)(F)C(O)(Cn1cncn1)c1ccc(F)cc1F (single isomer, unassigned) [Example 143] | 0.2 (≈ 0.602 µM) | 25 (≈ 75.2 µM) | 450 | 242 |
| CCNC(=O)C(F)(F)C(O)(Cn1cncn1)c1ccc(F)cc1F (single isomer, unassigned) [Example 144] | 0.1 (≈ 0.289 µM) | 6.25 (≈ 18 µM) |  |  |
| O=C(NC1CC1)C(F)(F)C(O)(Cn1cncn1)c1ccc(F)cc1F (single isomer, unassigned) [Example 145] | 0.1 (≈ 0.279 µM) | 12.5 (≈ 34.9 µM) | 409 | 353 |
| O=C(NC1CC1)C(F)(F)C(O)(Cn1cncn1)c1ccccc1Cl (stereo not shown) [Example 3] | 0.39 (≈ 1.09 µM) | 12.5 (≈ 35 µM) |  |  |
| O=C(NC1CC1)C(F)(F)C(O)(Cn1cncn1)c1ccccc1F (stereo not shown) [Example 8, N-cyclopropyl-2,2-difluoro-3-(2-fluorophenyl)-3-hydroxy-4-(1H-1,2,4-triazol-1-yl)butanamide] | 0.78 (≈ 2.29 µM) | 25 (≈ 73.5 µM) |  |  |
| CNC(=O)C(F)(F)C(O)(Cn1cncn1)c1ccc(F)cc1F (stereo not shown) [Example 11] | 0.2 (≈ 0.602 µM) | 100 (≈ 301 µM) | 423 | 174 |
| CC(C)NC(=O)C(F)(F)C(O)(Cn1cncn1)c1ccc(F)cc1F (stereo not shown) [Example 33] | 0.2 (≈ 0.555 µM) | 50 (≈ 139 µM) |  |  |
| CC1CN(C(=O)C(F)(F)C(O)(Cn2cncn2)c2ccc(F)cc2F)CC(C)O1 (stereo not shown) [Example 39, 4-[3-(2,4-difluorophenyl)-2,2-difluoro-3-hydroxy-4-(1H-1,2,4-triazol-1-yl)butanoyl]-2,6-dimethylmorpholine] | 6.25 (≈ 15 µM) | 100 (≈ 240 µM) |  |  |
| NC(=O)C(F)(Cc1ccccc1)C(O)(Cn1cncn1)c1ccc(F)cc1F (stereo not shown) [Example 56] | 0.39 (≈ 0.999 µM) | 100 (≈ 256 µM) |  |  |
| CCNC(=O)C(F)(F)C(O)(Cn1cncn1)c1ccccc1 (stereo not shown) [Example 69] | 0.39 (≈ 1.26 µM) | 50 (≈ 161 µM) |  |  |
| CNC(=O)C(F)(F)C(O)(Cn1cncn1)c1ccccc1F (stereo not shown) [Example 72] | 0.39 (≈ 1.24 µM) | 50 (≈ 159 µM) |  |  |
| CCNC(=O)C(F)(F)C(O)(Cn1cncn1)c1ccccc1F (stereo not shown) [Example 73] | 0.39 (≈ 1.19 µM) | 25 (≈ 76.2 µM) |  |  |
| CNC(=O)C(F)(F)C(O)(Cn1cncn1)c1ccccc1Cl (stereo not shown) [Example 74] | 0.78 (≈ 2.36 µM) | 12.5 (≈ 37.8 µM) |  |  |
| CCNC(=O)C(F)(F)C(O)(Cn1cncn1)c1ccccc1Cl (stereo not shown) [Example 75] | 0.2 (≈ 0.58 µM) | 6.25 (≈ 18.1 µM) |  |  |
| CNC(=O)C(F)(F)C(O)(Cn1cncn1)c1ccc(F)cc1Cl (stereo not shown) [Example 80] | 0.39 (≈ 1.12 µM) | 12.5 (≈ 35.8 µM) | 455 | 416 |
| O=C(NC1CC1)C(F)(F)C(O)(Cn1cncn1)c1ccc(Cl)cc1Cl (stereo not shown) [Example 85] | 0.1 (≈ 0.256 µM) | 12.5 (≈ 32 µM) |  |  |
| CCNC(=O)C(F)(F)C(O)(Cn1cncn1)c1cc(F)c(F)cc1F (stereo not shown) [Example 88] | 0.2 (≈ 0.549 µM) | 50 (≈ 137 µM) |  |  |
| CCNC(=O)C(F)(F)C(O)(Cn1cncn1)c1cc(F)ccc1F (stereo not shown) [Example 117] | 0.39 (≈ 1.13 µM) | 25 (≈ 72.2 µM) |  |  |
| N#CCc1ccc(NC(=O)C(F)(F)C(O)(Cn2cncn2)c2ccc(F)cc2F)cc1 (stereo not shown) [Example 138] | 0.1 (≈ 0.231 µM) | 12.5 (≈ 28.8 µM) |  |  |

Continued, in another order:

| MIC (Candida albicans ON28 [3]) [µg/mL] | MIC [4] [µg/mL] | SMILES | Relative therapeutic index (Candida albicans ON28 [1]) | Relative therapeutic index [2] |
| --- | --- | --- | --- | --- |
| 0.1 (≈ 0.287 µM) | 6.25 (≈ 17.9 µM) | CNC(=O)C(F)(F)C(O)(Cn1cncn1)c1ccc(F)cc1Cl (single isomer, unassigned) [Example 147] | 414 | 526 |
| 0.1 (≈ 0.267 µM) | 3.13 (≈ 8.35 µM) | O=C(NC1CC1)C(F)(F)C(O)(Cn1cncn1)c1ccc(F)cc1Cl (single isomer, unassigned) [Example 148] |  |  |
| 0.1 (≈ 0.269 µM) | 50 (≈ 134 µM) | CC1(NC(=O)C(F)(F)C(O)(Cn2cncn2)c2ccc(F)cc2F)CC1 (stereo not shown) [Example 4] |  |  |
| ≤ 0.05 | 12.5 (≈ 26.7 µM) | O=C(NC1(c2ccc(Cl)cc2)CC1)C(F)(F)C(O)(Cn1cncn1)c1ccc(F)cc1F (stereo not shown) [Example 5] |  |  |
| ≤ 0.05 | 25 (≈ 69.4 µM) | CCCNC(=O)C(F)(F)C(O)(Cn1cncn1)c1ccc(F)cc1F (stereo not shown) [Example 16] |  |  |
| 0.1 (≈ 0.279 µM) | 12.5 (≈ 34.9 µM) | C=CCNC(=O)C(F)(F)C(O)(Cn1cncn1)c1ccc(F)cc1F (stereo not shown) [Example 17] |  |  |
| ≤ 0.05 | 100 (≈ 259 µM) | O=C(NC1CCCC1)C(F)(F)C(O)(Cn1cncn1)c1ccc(F)cc1F (stereo not shown) [Example 20] |  |  |
| ≤ 0.05 | 100 (≈ 250 µM) | O=C(NC1CCCCC1)C(F)(F)C(O)(Cn1cncn1)c1ccc(F)cc1F (stereo not shown) [Example 21] |  |  |
| ≤ 0.05 | 12.5 (≈ 28.2 µM) | O=C(NCc1ccc(Cl)cc1)C(F)(F)C(O)(Cn1cncn1)c1ccc(F)cc1F (stereo not shown) [Example 22] |  |  |
| ≤ 0.05 | 25 (≈ 66.8 µM) | CC(C)CNC(=O)C(F)(F)C(O)(Cn1cncn1)c1ccc(F)cc1F (stereo not shown) [Example 35] |  |  |
| ≤ 0.05 | 50 (≈ 117 µM) | O=C(Nc1ccc(Cl)cc1)C(F)(F)C(O)(Cn1cncn1)c1ccc(F)cc1F (stereo not shown) [Example 42, N-(4-chlorophenyl)-3-(2,4-difluorophenyl)-2,2-difluoro-3-hydroxy-4-(1H-1,2,4-triazol-1-yl)butanamide] |  |  |
| ≤ 0.05 | 25 (≈ 61.2 µM) | Cc1ccc(NC(=O)C(F)(F)C(O)(Cn2cncn2)c2ccc(F)cc2F)cc1 (stereo not shown) [Example 43] |  |  |
| ≤ 0.05 | 1.56 (≈ 3.69 µM) | Cc1ccc(NC(=O)C(F)(F)C(O)(Cn2cncn2)c2ccc(F)cc2F)c(C)c1 (stereo not shown) [Example 44] |  |  |
| ≤ 0.05 | 50 (≈ 118 µM) | COc1ccccc1NC(=O)C(F)(F)C(O)(Cn1cncn1)c1ccc(F)cc1F (stereo not shown) [Example 45] |  |  |
| 0.1 (≈ 0.267 µM) | 12.5 (≈ 33.4 µM) | CC(C)(C)NC(=O)C(F)(F)C(O)(Cn1cncn1)c1ccc(F)cc1F (stereo not shown) [Example 51] |  |  |
| 0.1 (≈ 0.276 µM) | 3.13 (≈ 8.63 µM) | CCNC(=O)C(F)(F)C(O)(Cn1cncn1)c1ccc(F)cc1Cl (stereo not shown) [Example 81] |  |  |
| 0.1 (≈ 0.276 µM) | 25 (≈ 68.9 µM) | CCNC(=O)C(F)(F)C(O)(Cn1cncn1)c1ccc(Cl)cc1F (stereo not shown) [Example 83] |  |  |
| 0.05 (≈ 0.134 µM) | 12.5 (≈ 33.4 µM) | CCCCNC(=O)C(F)(F)C(O)(Cn1cncn1)c1ccc(F)cc1F (stereo not shown) [Example 114] |  |  |
| 0.025 (≈ 0.0541 µM) | 12.5 (≈ 27 µM) | O=C(Nc1ccc(C(F)(F)F)cc1)C(F)(F)C(O)(Cn1cncn1)c1ccc(F)cc1F (stereo not shown) [Example 136] |  |  |
| 0.05 (≈ 0.118 µM) | 12.5 (≈ 29.5 µM) | COc1ccc(NC(=O)C(F)(F)C(O)(Cn2cncn2)c2ccc(F)cc2F)cc1 (stereo not shown) [Example 139] |  |  |
